Experimental data reported in US12077503B2, “Substituted cyclic amides and their use as herbicides” (FMC CORPORATION, priority 2015, dated 2024).

Legend:
Test in all cases: Test A preemergence
Format in all cases: in vivo
[1] = test system: pigweed (Amaranthus retroflexus); details: Amaranthus retroflexus, pre-emergence, 240 h; for pest or weed control at 125 g/ha: 125 g ai/ha, preemergence, 0 to 100 scale where 0 is no effect and 100 is complete control, read-out: Pigweed plant response rating; for pest or weed control at 500 g/ha: 500 g ai/ha, Preemergence, visual injury vs untreated controls after approximately 10 d, read-out: Pigweed plant response rating (0 to 100 scale where 0 is no effect and 100 is complete control)
[2] = test system: ragweed (common ragweed, Ambrosia elatior); details: Ambrosia artemisiifolia, pre-emergence, 240 h; for pest or weed control at 125 g/ha: 125 g ai/ha, preemergence, 0 to 100 scale where 0 is no effect and 100 is complete control, read-out: Ragweed plant response rating; for pest or weed control at 500 g/ha: 500 g ai/ha, Preemergence, visual injury vs untreated controls after approximately 10 d, read-out: Ragweed plant response rating (0 to 100 scale where 0 is no effect and 100 is complete control)
Method in brief: (§1)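 Treatment is preemergence as a directed soil spray after planting, or postemergence at the one- to two-leaf stage, with test chemical in a non-phytotoxic solvent mixture plus surfactant. Plants stay in the greenhouse about 10 d before visual injury scoring on a 0 to 100 scale versus untreated controls.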

[3] = test system: ryegrass, Italian (Italian ryegrass, Lolium multiflorum); details: Lolium multiflorum, pre-emergence, 240 h; for pest or weed control at 125 g/ha: 125 g ai/ha, preemergence, 0 to 100 scale where 0 is no effect and 100 is complete control, read-out: Ryegrass, Italian plant response rating; for pest or weed control at 500 g/ha: 500 g ai/ha, Preemergence, visual injury vs untreated controls after approximately 10 d, read-out: Ryegrass, Italian plant response rating (0 to 100 scale where 0 is no effect and 100 is complete control)
Method in brief: as §1

[4] = test system: giant foxtail (Setaria faberii); details: Setaria faberi, pre-emergence, 240 h; for pest or weed control at 125 g/ha: 125 g ai/ha, preemergence, 0 to 100 scale where 0 is no effect and 100 is complete control, read-out: Foxtail, Giant plant response rating; for pest or weed control at 500 g/ha: 500 g ai/ha, Preemergence, visual injury vs untreated controls after approximately 10 d, read-out: Foxtail, Giant plant response rating (0 to 100 scale where 0 is no effect and 100 is complete control)
Method in brief: as §1

Kochia (Kochia scoparia) = details: Bassia scoparia, pre-emergence, 240 h; for pest or weed control at 125 g/ha: 125 g ai/ha, preemergence, 0 to 100 scale where 0 is no effect and 100 is complete control, read-out: Kochia plant response rating; for pest or weed control at 500 g/ha: 500 g ai/ha, Preemergence, visual injury vs untreated controls after approximately 10 d, read-out: Kochia plant response rating (0 to 100 scale where 0 is no effect and 100 is complete control)
Method in brief: as §1

## O=C1NC[C@H](c2cc(F)c(C(F)(F)F)c(F)c2)[C@H]1C(=O)Nc1ccc(F)cc1F [Compound 840]
[1]
  pest or weed control at 125 g/ha: 30%
  pest or weed control at 500 g/ha: 60%
[2]
  pest or weed control at 125 g/ha: 0%
  pest or weed control at 500 g/ha: 0%
[3]
  pest or weed control at 125 g/ha: 0%
  pest or weed control at 500 g/ha: 20%
[4]
  pest or weed control at 125 g/ha: 90%
  pest or weed control at 500 g/ha: 90%
Kochia (Kochia scoparia)
  pest or weed control at 125 g/ha: 0%
  pest or weed control at 500 g/ha: 70%

## Cc1c(F)ccc([C@H]2CN(C)C(=O)[C@@H]2C(=O)Nc2ccccc2C(F)(F)F)c1F [Compound 841]
[1]
  pest or weed control at 125 g/ha: 0%
  pest or weed control at 500 g/ha: 30%
[2]
  pest or weed control at 125 g/ha: 0%
  pest or weed control at 500 g/ha: 0%
[3]
  pest or weed control at 125 g/ha: 0%
  pest or weed control at 500 g/ha: 40%
[4]
  pest or weed control at 125 g/ha: 90%
  pest or weed control at 500 g/ha: 90%
Kochia (Kochia scoparia)
  pest or weed control at 125 g/ha: 40%
  pest or weed control at 500 g/ha: 60%

## Cc1c(F)ccc([C@H]2CN(C)C(=O)[C@@H]2C(=O)Nc2ccccc2S(C)(=O)=O)c1F [Compound 842]
[1]
  pest or weed control at 125 g/ha: 40%
  pest or weed control at 500 g/ha: 70%
[2]
  pest or weed control at 125 g/ha: 70%
  pest or weed control at 500 g/ha: 80%
[3]
  pest or weed control at 125 g/ha: 30%
  pest or weed control at 500 g/ha: 60%
[4]
  pest or weed control at 125 g/ha: 90%
  pest or weed control at 500 g/ha: 100%
Kochia (Kochia scoparia)
  pest or weed control at 125 g/ha: 80%
  pest or weed control at 500 g/ha: 80%

## CC(C)(C)c1ccc([C@H]2CNC(=O)[C@@H]2C(=O)Nc2cccc(F)c2F)cc1 [Compound 847]
[1]
  pest or weed control at 125 g/ha: 0%
  pest or weed control at 500 g/ha: 0%
[2]
  pest or weed control at 125 g/ha: 0%
  pest or weed control at 500 g/ha: 0%
[3]
  pest or weed control at 125 g/ha: 0%
  pest or weed control at 500 g/ha: 0%
[4]
  pest or weed control at 125 g/ha: 0%
  pest or weed control at 500 g/ha: 50%
Kochia (Kochia scoparia)
  pest or weed control at 125 g/ha: 0%
  pest or weed control at 500 g/ha: 0%

## COc1cc([C@H]2CN(C)C(=O)[C@@H]2C(=O)Nc2ccccc2SC)cc(C(F)(F)F)c1 [Compound 857]
[1]
  pest or weed control at 125 g/ha: 60%
  pest or weed control at 500 g/ha: 70%
[2]
  pest or weed control at 125 g/ha: 0%
  pest or weed control at 500 g/ha: 30%
[3]
  pest or weed control at 125 g/ha: 40%
  pest or weed control at 500 g/ha: 60%
[4]
  pest or weed control at 125 g/ha: 80%
  pest or weed control at 500 g/ha: 90%
Kochia (Kochia scoparia)
  pest or weed control at 125 g/ha: 0%
  pest or weed control at 500 g/ha: 30%

## COc1cc(C(F)(F)F)ccc1[C@H]1CN(C)C(=O)[C@@H]1C(=O)Nc1ccccc1F [Compound 858]
[1]
  pest or weed control at 125 g/ha: 20%
  pest or weed control at 500 g/ha: 50%
[2]
  pest or weed control at 125 g/ha: 0%
  pest or weed control at 500 g/ha: 30%
[3]
  pest or weed control at 125 g/ha: 30%
  pest or weed control at 500 g/ha: 70%
[4]
  pest or weed control at 125 g/ha: 90%
  pest or weed control at 500 g/ha: 90%
Kochia (Kochia scoparia)
  pest or weed control at 125 g/ha: 60%
  pest or weed control at 500 g/ha: 70%

## CSc1ccccc1NC(=O)[C@H]1C(=O)N(C)C[C@@H]1c1cccc(OC(F)(F)C(F)F)c1 [Compound 862]
[1]
  pest or weed control at 125 g/ha: 80%
  pest or weed control at 500 g/ha: 90%
[2]
  pest or weed control at 125 g/ha: 90%
  pest or weed control at 500 g/ha: 100%
[3]
  pest or weed control at 125 g/ha: 0%
  pest or weed control at 500 g/ha: 20%
[4]
  pest or weed control at 125 g/ha: 90%
  pest or weed control at 500 g/ha: 90%
Kochia (Kochia scoparia)
  pest or weed control at 125 g/ha: 70%
  pest or weed control at 500 g/ha: 70%

## Cc1c(F)cccc1NC(=O)[C@H]1C(=O)N(C)C[C@@H]1c1cc(F)c(F)c(F)c1 [Compound 867]
[1]
  pest or weed control at 125 g/ha: 0%
  pest or weed control at 500 g/ha: 30%
[2]
  pest or weed control at 125 g/ha: 0%
  pest or weed control at 500 g/ha: 30%
[3]
  pest or weed control at 125 g/ha: 60%
  pest or weed control at 500 g/ha: 60%
[4]
  pest or weed control at 125 g/ha: 90%
  pest or weed control at 500 g/ha: 90%
Kochia (Kochia scoparia)
  pest or weed control at 125 g/ha: 50%
  pest or weed control at 500 g/ha: 70%
